According to patent US6670345B1 (Dabur Research Foundation, priority 1997, dated 2003):
Values after ≈ are worked out from the molar mass of the structure shown.

What was measured:
Details in all cases: 72 hours
[1] = test system: leukemia cells (MOLT-4); test: MTT cytotoxicity assay, leukemia cells (MOLT-4); assay type: cell-based, human
Method: (§1) After 72 hours, the assay was terminated and percent cyotoxicities calculated.

[2] = test system: lymphoma cells (U937); test: MTT cytotoxicity assay, lymphoma cells (U937); assay type: cell-based, human
Method: as §1

[3] = test system: human prostate (DU145); test: MTT cytotoxicity assay, human prostate (DU145); assay type: cell-based
Method: as §1

[4] = test system: human colon (HT29); test: MTT cytotoxicity assay, human colon (HT29); assay type: cell-based
Method: as §1

[5] = test system: human larynx (HeP.2); test: MTT cytotoxicity assay, human larynx (HeP.2); assay type: cell-based
Method: as §1

[6] = test system: human lung (L132); test: MTT cytotoxicity assay, human lung (L132); assay type: cell-based
Method: as §1

[7] = test system: ovarian cancer cells (PA-1); test: MTT cytotoxicity assay, ovarian cancer cells (PA-1); assay type: cell-based, human
Method: as §1

| SMILES | ED50 Leukemia MOLT-4 [1] [µg/mL] | ED50 Lymphoma U937 [2] [µg/mL] | ED50 Prostate DU 145 [3] [µg/mL] | ED50 Colon HT-29 [4] [µg/mL] | ED50 Larynx Hep. 2 [5] [µg/mL] | ED50 Lung L 132 [6] [µg/mL] | ED50 Ovary PA-I [7] [µg/mL] |
| --- | --- | --- | --- | --- | --- | --- | --- |
| CC(C)C1CCC2(C(=O)O)CCC3(C)C(CCC4C5(C)CCC(OC(=O)c6ccc(F)cc6F)C(C)(C)C5CCC43C)C12 (centres unmarked) [Derivative 937] | 0.9 (≈ 1.5 µM) | 1.2 (≈ 2 µM) | 2.5 (≈ 4.17 µM) | 1.7 (≈ 2.84 µM) | 5.9 (≈ 9.85 µM) | 1.1 (≈ 1.84 µM) | 1.6 (≈ 2.67 µM) |
| C=C(C)[C@@H]1CC[C@]2(C(=O)O)CC[C@]3(C)[C@H](CC[C@@H]4[C@@]5(C)CC[C@H](O)C(C)(C)[C@@H]5CC[C@]43C)[C@@H]12 [BA] | 1.9 (≈ 4.16 µM) | 0.7 (≈ 1.53 µM) | >10 | 1.8 (≈ 3.94 µM) | >10 | 3.2 (≈ 7.01 µM) | 17 (≈ 37.2 µM) |
| C=C(C)C1CCC2(C(=O)O)CCC3(C)C(CCC4C5(C)CCC(OC(=O)c6ccc(CCCCC)cc6)C(C)(C)C5CCC43C)C12 (centres unmarked) [Derivative 1104] | 1.5 (≈ 2.38 µM) | 1.1 (≈ 1.74 µM) | 2.0 (≈ 3.17 µM) | 3.5 (≈ 5.55 µM) | 1.7 (≈ 2.69 µM) | 5.9 (≈ 9.35 µM) | 0.8 (≈ 1.27 µM) |
| C=C(C)C1CCC2(C(=O)O)CCC3(C)C(CCC4C5(C)CCC(OC(=O)C67CCC(C(C)C)C6C6CCC8C9(C)CC(Br)C(=O)C(C)(C)C9CCC8(C)C6(C)CC7)C(C)(C)C5CCC43C)C12 (centres unmarked) [Derivative 1155] | 1.1 (≈ 1.13 µM) | >10 | >10 | >10 | >10 | >10 | >4.0 |
| C=C(C)C1CCC2(C(=O)O)CCC3(C)C(CCC4C5(C)CCC(OC(=O)Cc6cc(OC)ccc6OC)C(C)(C)C5CCC43C)C12 (centres unmarked) [Derivative 1108] | 1.5 (≈ 2.36 µM) | 1.0 (≈ 1.58 µM) | >4 | >10 | 1.7 (≈ 2.68 µM) | 4.6 (≈ 7.25 µM) | 1.3 (≈ 2.05 µM) |
| C=CC(=O)OC(=O)C12CCC(C(=C)C)C1C1CCC3C4(C)CCC(O)C(C)(C)C4CCC3(C)C1(C)CC2 (centres unmarked) [Derivative 1101] | 1.9 (≈ 3.72 µM) | 1.2 (≈ 2.35 µM) | >10 | >10 | 1.6 (≈ 3.13 µM) | 1.7 (≈ 3.33 µM) | 3.5 (≈ 6.85 µM) |
| C=C(C)C1CCC2(C(=O)O)CCC3(C)C(CCC4C5(C)CCC(OC(=O)c6ccc(CCCCCCC)cc6)C(C)(C)C5CCC43C)C12 (centres unmarked) [Derivative 1138] | 2.0 (≈ 3.03 µM) | 1.1 (≈ 1.67 µM) | >10 | >10 | 2.0 (≈ 3.03 µM) | 7.0 (≈ 10.6 µM) | 1.3 (≈ 1.97 µM) |
| C=CC(=O)OC(=O)C12CCC(C(C)C)C1C1CCC3C4(C)CCC(O)C(C)(C)C4CCC3(C)C1(C)CC2 (centres unmarked) [Derivative 1103] | 1.9 (≈ 3.71 µM) | 1.0 (≈ 1.95 µM) | >4 | 10.0 (≈ 19.5 µM) | 3.0 (≈ 5.85 µM) | 4.0 (≈ 7.8 µM) | 1.5 (≈ 2.93 µM) |
| CC(C)C1CCC2(C(=O)O)CCC3(C)C(CCC4C5(C)CCC(N=Cc6ccc(F)c(F)c6)C(C)(C)C5CCC43C)C12 (centres unmarked) [Derivative 998] | 1.9 (≈ 3.27 µM) | 1.6 (≈ 2.75 µM) | 2.2 (≈ 3.78 µM) | 4.0 (≈ 6.87 µM) | 3.0 (≈ 5.16 µM) | 2.5 (≈ 4.3 µM) | 1.2 (≈ 2.06 µM) |
| CC(C)C1CCC2(C(=O)OC3CCC4(C)C(CCC5(C)C4CCC4C6C(C(C)C)CCC6(C(=O)O)CCC45C)C3(C)C)CCC3(C)C(CCC4C5(C)CC(Br)C(=O)C(C)(C)C5CCC43C)C12 (centres unmarked) [Derivative 1161] | 0.34 (≈ 0.348 µM) | 0.3 (≈ 0.307 µM) | 0.4 (≈ 0.41 µM) | 3.5 (≈ 3.58 µM) | 1.4 (≈ 1.43 µM) | 3.5 (≈ 3.58 µM) | 1.2 (≈ 1.23 µM) |
| COC(=O)COC(=O)C12CCC(C(C)C)C1C1CCC3C4(C)CCC(NC(C)=O)C(C)(C)C4CCC3(C)C1(C)CC2 (centres unmarked) [Derivative 1025] | 1.0 (≈ 1.75 µM) | >10 | >4 | >10 | >10 | 3.2 (≈ 5.6 µM) | >4.0 |
